{"source": "paper PMC10465233", "about": "“Lys-urea-Aad, Lys-urea-Cmc and Lys-urea-Cms as potential pharmacophores for the design of PSMA-targeted radioligands to reduce off-target uptake in kidneys and salivary glands” (Theranostics, 2023)", "key": {"[1]": {"molecular_target": "T1, PSMA (Homo sapiens, UniProt Q04609)", "T1 construct": "host or cells: LNCaP prostate cancer cells", "T1 sequence (Q04609 whole entry)": "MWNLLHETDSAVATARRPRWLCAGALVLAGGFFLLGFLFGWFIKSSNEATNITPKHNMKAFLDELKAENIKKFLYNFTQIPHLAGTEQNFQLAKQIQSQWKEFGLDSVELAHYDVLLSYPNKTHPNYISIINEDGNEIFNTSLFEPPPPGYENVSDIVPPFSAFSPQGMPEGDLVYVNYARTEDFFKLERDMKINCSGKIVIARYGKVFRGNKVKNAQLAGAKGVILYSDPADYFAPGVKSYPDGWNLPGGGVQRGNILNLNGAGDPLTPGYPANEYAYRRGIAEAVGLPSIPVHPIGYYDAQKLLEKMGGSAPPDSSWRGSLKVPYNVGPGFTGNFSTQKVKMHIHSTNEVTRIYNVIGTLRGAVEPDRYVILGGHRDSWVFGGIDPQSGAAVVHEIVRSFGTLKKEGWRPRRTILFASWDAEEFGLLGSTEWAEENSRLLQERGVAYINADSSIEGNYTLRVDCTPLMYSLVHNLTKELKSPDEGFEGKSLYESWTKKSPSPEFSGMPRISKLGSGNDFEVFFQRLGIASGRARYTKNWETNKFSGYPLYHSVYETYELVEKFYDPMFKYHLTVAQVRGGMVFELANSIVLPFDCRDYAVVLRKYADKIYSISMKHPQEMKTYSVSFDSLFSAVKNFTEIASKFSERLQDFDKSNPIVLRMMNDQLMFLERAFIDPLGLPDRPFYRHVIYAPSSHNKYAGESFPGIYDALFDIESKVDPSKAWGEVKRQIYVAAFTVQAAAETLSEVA", "set-up": "method as in PMID 36168623", "details": "LNCaP cells; cited from earlier work"}, "[2]": {"system": "LNCaP tumor-bearing mice", "assay": "Ex vivo biodistribution in LNCaP tumor-bearing mice", "set-up": "species or system mouse", "details": "1 h post-injection", "how_it_was_run": "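Male NSG or NRG mice bearing subcutaneous LNCaP tumours (5-8 mm) were injected with 2-4 MBq radioligand, with 0.5 mg nonradioactive DCFPyL co-injected for blocking. At set time points, blood and organs were collected, weighed and gamma-counted.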"}, "[3]": {"system": "LNCaP tumor-bearing mice", "assay": "PET/CT imaging in LNCaP tumor-bearing mice", "assay_type": "in vivo, mouse", "details": "1 h post-injection", "description": "Imaging, biodistribution and radioligand therapy experiments were performed following previously published procedures using male NOD-scid IL2Rg^null (NSG) or NOD.Cg-Rag1^tm1MomIl2rg^tm1Wjl/SzJ (NRG) mice [10]-[12],[14]-[15]. The experiments were conducted according to the guidelines established by the Canadian Council on Animal Care and approved by Animal Ethics Committee of the University of British Columbia. The mice were briefly sedated by inhalation of 2% isoflurane in oxygen, and implanted subcutaneously with 1×10^7 LNCaP cells behind the left shoulder. The mice were imaged or used in biodistribution studies when the tumor grew to 5-8 mm in diameter over a period of 4-5 weeks.\nPET/CT imaging experiments were conducted using a Siemens (Knoxville, TN, USA) Inveon micro PET/CT scanner. Each tumor-bearing mouse was injected with ~6-8 MBq of ^68Ga-labeled tracer through a lateral caudal tail vein. After 50 min post-injection, a 10-min CT scan was conducted first for localization and attenuation correction after segmentation for reconstructing the PET images, followed by a 10-min static PET imaging acquisition."}, "[4]": {"molecular_target": "T1, PSMA", "assay": "In vitro competition binding assay, LNCaP cells, [^18F]DCFPyL as radioligand", "description": "The LNCaP cells obtained from ATCC (via Cedarlane, Burlington, Canada) were cultured in RPMI 1640 medium supplemented with 10% FBS, penicillin (100 U/mL) and streptomycin (100 μg/mL) at 37 °C in a Panasonic Healthcare (Tokyo, Japan) MCO-19AIC humidified incubator containing 5% CO2. The cells were confirmed pathogen free by the IMPACT Rodent Pathogen Test (IDEXX BioAnalytics). Cells grown to 80-90% confluence were then washed with sterile PBS and collected after trypsinization. The cell concentration was counted in triplicate using a hemocytometer and a manual laboratory counter.\nIn vitro competition binding assays were conducted as previously reported using LNCaP prostate cancer cells and [^18F]DCFPyL as the radioligand [10]-[12],[14]. Briefly, LNCaP cells (400,000/well) were plated onto a 24-well poly-D-lysine coated plate for 48 h. Growth media was removed and replaced with HEPES buffered saline (50 mM HEPES, pH 7.5, 0.9% sodium chloride) and the cells were incubated for 1 h at 37 °C. [^18F]DCFPyL (0.1 nM) was added to each well (in triplicate) containing various concentrations (0.5 mM - 0.05 nM) of tested ligands. Non-specific binding was determined in the presence of 10 µM non-radiolabeled DCFPyL. The assay mixtures were further incubated for 1 h at 37 °C with gentle agitation. Then, the buffer and hot ligand were removed, and cells were washed twice with cold HEPES buffered saline. To harvest the cells, 400 µL of 0.25% trypsin solution was added to each well. Radioactivity was measured on an automatic gamma counter. Nonlinear regression analyses and Ki calculations were performed using the GraphPad Prism 7 software."}, "[5]": {"details": "blocked, co-injected with DCFPyL (0.5 mg)"}}, "note": "“And” between values parts separate entries of the source, which are not always exact repeats. Equal values may be shown once. Read-outs that look alike come from different tables or passages of the source.", "data": [{"smiles": "O=C([O-])CN1CCN(CC(=O)[O-])CCN(CC(=O)NCC2CCC(C(=O)NC(Cc3c4ccccc4cc4ccccc34)C(=O)NCCCCC(NC(=O)NC(CCCC(=O)O)C(=O)O)C(=O)O)CC2)CCN(CC(=O)[O-])CC1.[Ga+3]", "note": "(stereo not drawn) [Ga-HTK03149]", "values": [{"measurement": "Ki", "setting": "[1]", "result": "6.99 ± 0.8", "unit": "nM"}]}, {"smiles": "O=C([O-])CN1CCN(CC(=O)[O-])CCN(CC(=O)NCC2CCC(C(=O)NC(Cc3c4ccccc4cc4ccccc34)C(=O)NCCCCC(NC(=O)NC(COCC(=O)O)C(=O)O)C(=O)O)CC2)CCN(CC(=O)[O-])CC1.[68Ga+3]", "note": "(stereo not drawn) [[^68Ga]Ga-HTK03187]", "values": [{"measurement": "Adrenal glands uptake", "setting": "[2]", "result": "0.26 ± 0.06", "unit": "%ID/g"}, {"measurement": "Blood uptake", "setting": "[2]", "result": "0.67 ± 0.10", "unit": "%ID/g"}, {"measurement": "Blood:Salivary gland uptake ratio", "setting": "[2]", "result": "4.27 ± 0.74"}, {"measurement": "Bone uptake", "setting": "[2]", "result": "0.13 ± 0.03", "unit": "%ID/g"}, {"measurement": "Brain uptake", "setting": "[2]", "result": "0.02 ± 0.00", "unit": "%ID/g"}, {"measurement": "Fat uptake", "setting": "[2]", "result": "0.07 ± 0.02", "unit": "%ID/g"}, {"measurement": "Heart uptake", "setting": "[2]", "result": "0.19 ± 0.04", "unit": "%ID/g"}, {"measurement": "Intestines uptake", "setting": "[2]", "result": "0.23 ± 0.05", "unit": "%ID/g"}, {"measurement": "Lacrimal glands uptake", "setting": "[2]", "result": "0.09 ± 0.03", "unit": "%ID/g"}, {"measurement": "Liver uptake", "setting": "[2]", "result": "0.21 ± 0.05", "unit": "%ID/g"}, {"measurement": "Lungs uptake", "setting": "[2]", "result": "0.52 ± 0.09", "unit": "%ID/g"}, {"measurement": "Muscle uptake", "setting": "[2]", "result": "0.09 ± 0.01", "unit": "%ID/g"}, {"measurement": "Pancreas uptake", "setting": "[2]", "result": "0.12 ± 0.02", "unit": "%ID/g"}, {"measurement": "Salivary glands uptake", "setting": "[2]", "result": "0.16±0.02 %ID/g and < 0.25 %ID/g"}, {"measurement": "Spleen uptake", "setting": "[2]", "result": "0.17 ± 0.02", "unit": "%ID/g"}, {"measurement": "Stomach uptake", "setting": "[2]", "result": "0.08 ± 0.05", "unit": "%ID/g"}, {"measurement": "Testes uptake", "setting": "[2]", "result": "0.15 ± 0.03", "unit": "%ID/g"}, {"measurement": "Thyroid uptake", "setting": "[2]", "result": "0.18 ± 0.02", "unit": "%ID/g"}, {"measurement": "Tumor uptake", "setting": "[2]", "result": "21.1±3.62 %ID/g and 21-25 %ID/g"}, {"measurement": "Tumor:Blood uptake ratio", "setting": "[2]", "result": "32.2±8.53"}, {"measurement": "Tumor:Kidney uptake ratio", "setting": "[2]", "result": "7.67±2.10"}, {"measurement": "Tumor:Muscle uptake ratio", "setting": "[2]", "result": "249±61.2"}, {"measurement": "Tumor:Salivary gland uptake ratio", "setting": "[2]", "result": "133±14.0"}, {"measurement": "Adrenal glands uptake", "setting": "[2]; [5]", "result": "0.13 ± 0.06", "unit": "%ID/g"}, {"measurement": "Blood uptake", "setting": "[2]; [5]", "result": "0.33 ± 0.16", "unit": "%ID/g"}, {"measurement": "Blood:Salivary gland uptake ratio", "setting": "[2]; [5]", "result": "3.64 ± 0.44"}, {"measurement": "Bone uptake", "setting": "[2]; [5]", "result": "0.06 ± 0.02", "unit": "%ID/g"}, {"measurement": "Brain uptake", "setting": "[2]; [5]", "result": "0.01 ± 0.00", "unit": "%ID/g"}, {"measurement": "Fat uptake", "setting": "[2]; [5]", "result": "0.06 ± 0.04", "unit": "%ID/g"}, {"measurement": "Heart uptake", "setting": "[2]; [5]", "result": "0.10 ± 0.05", "unit": "%ID/g"}, {"measurement": "Intestines uptake", "setting": "[2]; [5]", "result": "0.13 ± 0.03", "unit": "%ID/g"}, {"measurement": "Kidneys uptake", "setting": "[2]; [5]", "result": "1.15 ± 0.37", "unit": "%ID/g"}, {"measurement": "Lacrimal glands uptake", "setting": "[2]; [5]", "result": "0.06 ± 0.03", "unit": "%ID/g"}, {"measurement": "Liver uptake", "setting": "[2]; [5]", "result": "0.16 ± 0.05", "unit": "%ID/g"}, {"measurement": "Lungs uptake", "setting": "[2]; [5]", "result": "0.31 ± 0.10", "unit": "%ID/g"}, {"measurement": "Muscle uptake", "setting": "[2]; [5]", "result": "0.08 ± 0.06", "unit": "%ID/g"}, {"measurement": "Pancreas uptake", "setting": "[2]; [5]", "result": "0.07 ± 0.02", "unit": "%ID/g"}, {"measurement": "Salivary glands uptake", "setting": "[2]; [5]", "result": "0.09 ± 0.04", "unit": "%ID/g"}, {"measurement": "Spleen uptake", "setting": "[2]; [5]", "result": "0.12 ± 0.03", "unit": "%ID/g"}, {"measurement": "Stomach uptake", "setting": "[2]; [5]", "result": "0.03 ± 0.01", "unit": "%ID/g"}, {"measurement": "Testes uptake", "setting": "[2]; [5]", "result": "0.15 ± 0.01", "unit": "%ID/g"}, {"measurement": "Thyroid uptake", "setting": "[2]; [5]", "result": "0.12 ± 0.05", "unit": "%ID/g"}, {"measurement": "Tumor uptake", "setting": "[2]; [5]", "result": "0.35 ± 0.09", "unit": "%ID/g"}, {"measurement": "Tumor:Blood uptake ratio", "setting": "[2]; [5]", "result": "1.14 ± 0.25"}, {"measurement": "Tumor:Kidney uptake ratio", "setting": "[2]; [5]", "result": "0.31 ± 0.08"}, {"measurement": "Tumor:Muscle uptake ratio", "setting": "[2]; [5]", "result": "5.34 ± 2.25"}, {"measurement": "Tumor:Salivary gland uptake ratio", "setting": "[2]; [5]", "result": "4.13 ± 0.92"}, {"measurement": "Tumor uptake", "setting": "[2]; listed as [^68Ga]HTK03187", "result": "~ 20 %ID/g"}, {"measurement": "Reduction of average kidney uptake by co-injection of DCFPyL", "setting": "[2]; DCFPyL 0.5 mg", "result": 59, "unit": "%"}, {"measurement": "Kidney uptake in PET images", "setting": "[3]", "result": "relatively lower"}]}, {"smiles": "O=C([O-])CN1CCN(CC(=O)[O-])CCN(CC(=O)NCC2CCC(C(=O)NC(Cc3c4ccccc4cc4ccccc34)C(=O)NCCCCC(NC(=O)NC(CSCC(=O)O)C(=O)O)C(=O)O)CC2)CCN(CC(=O)[O-])CC1.[Ga+3]", "note": "(stereo not drawn) [Ga-HTK03177]", "values": [{"measurement": "Ki", "setting": "[4]", "result": "5 ± 2.4", "unit": "nM"}]}, {"smiles": "COc1ccc(CCCC(=O)NCC(=O)N[C@@H](CCCCNC(=O)CN2CCN(CC(=O)[O-])CCN(CC(=O)[O-])CCN(CC(=O)[O-])CC2)C(=O)NC[C@H]2CC[C@H](C(=O)N[C@@H](Cc3c4ccccc4cc4ccccc34)C(=O)NCCCC[C@H](NC(=O)N[C@@H](COCC(=O)O)C(=O)O)C(=O)O)CC2)cc1.[Lu+3]", "note": "[Lu-HTK04028]", "values": [{"measurement": "Ki", "setting": "[4]", "result": "13.9 ± 3.2", "unit": "nM"}]}, {"smiles": "COc1ccc(CCCC(=O)NCC(=O)N[C@@H](CCCCNC(=O)CN2CCN(CC(=O)[O-])CCN(CC(=O)[O-])CCN(CC(=O)[O-])CC2)C(=O)NC[C@H]2CC[C@H](C(=O)N[C@@H](Cc3c4ccccc4cc4ccccc34)C(=O)NCCCC[C@H](NC(=O)N[C@@H](CCCC(=O)O)C(=O)O)C(=O)O)CC2)cc1.[Lu+3]", "note": "[Lu-HTK03170]", "values": [{"measurement": "Ki", "setting": "[4]", "result": "1.6 ± 0.4", "unit": "nM"}]}]}
